Measurements: US20040152904A1, “Delta1 pyrrolines” (priority 2001, published 2004)

Experiments:
Assay type in all cases: in vivo
[1] = system: caterpillars of the diamond-back moth (Plutella xylostella); test: Plutella test; conditions: 40 ppm active compound, cabbage leaves dipped
Protocol: Plutella Test Solvent: 30 parts by weight of dimethylformamide Emulsifier: 1 part by weight of alkylaryl polyglycol ether To produce a suitable preparation of active compound, 1 part by weight of active compound is mixed with the stated amounts of solvent and emulsifier, and the concentrate is diluted with emulsifier-containing water to the desired concentration. Cabbage leaves (Brassica oleracea) are treated by being dipped into the preparation of active compound of the desired concentration and are populated with caterpillars of the diamond-back moth (Plutella xylostella) whilst the leaves are still moist. After the desired period of time, the kill in % is determined. 100% means that all caterpillars have been killed; 0% means that none of the caterpillars have been killed.

[2] = system: army worm (Spodoptera exigua) caterpillars; test: Spodoptera exigua test; conditions: cabbage leaves dipped
Protocol: Spodoptera exigua Test Solvent: 7 parts by weight of dimethylformamide Emulsifier: 1 part by weight of alkylaryl polyglycol ether To produce a suitable preparation of active compound, 1 part by weight of active compound is mixed with the stated amounts of solvent and emulsifier, and the concentrate is diluted with emulsifier-containing water to the desired concentration. Cabbage leaves (Brassica oleracea) are treated by being dipped into the preparation of active compound of the desired concentration and are populated with army worm (Spodoptera exigua) caterpillars whilst the leaves are still moist. After the desired period of time, the kill in % is determined. 100% means that all caterpillars have been killed; 0% means that none of the caterpillars have been killed.

Lucilia cuprina larvae = test: Blowfly larvae test / development-inhibitory action; conditions: 100 ppm active compound
Protocol: Blowfly Larvae Test/Development-Inhibitory Action Test animals: Lucilia cuprina larvae Solvent: Dimethyl sulphoxide 20 mg of active compound are dissolved in 1 ml of dimethyl sulphoxide, more dilute concentrations are prepared by dilution with distilled water. About 20 Lucilia cuprina larvae are introduced into a test tube which contains about 1 cm^3 of horse meat and 0.5 ml of the preparation of active compound to be tested. The efficacy of the preparation of active compound is determined after 24 and 48 hours. The test tubes are transferred into beakers whose bottom is covered with sand. After a further 2 days, the test tubes are removed and the pupae are counted. The activity of the preparation of active compound is assessed by the number of flies that have hatched after 1.5 times the development time of an untreated control. 100% means that no flies have hatched; 0% means that all flies have hatched normally.

## CC(C)(C)n1nnc(-c2ccc(-c3ccc(C4CCC(c5c(F)cccc5F)=N4)cc3)cc2)n1 (centres unmarked) [drawing 60]
[1]
  Kill rate in % after 6d: 100%

## CC(C)(C)n1nnc(-c2ccc(-c3ccc(C4CCC(c5c(F)cccc5F)=N4)cc3)cc2)n1 (centres unmarked) [drawing 61]
[2]; 8 ppm active compound
  Kill rate in % after 6d: 100%

## CCn1nnc(-c2ccc(-c3ccc(C4CCC(c5c(F)cccc5F)=N4)cc3)cc2)n1 (centres unmarked) [drawing 62]
[2]; 40 ppm active compound
  Kill rate in % after 6d: 100%

## CCn1nnc(-c2ccc(-c3ccc(C4CCC(c5c(F)cccc5F)=N4)cc3)cc2)n1 (centres unmarked) [drawing 71]
Lucilia cuprina larvae
  Kill rate in % after 48h: 100%

## CCOCn1nnc(-c2ccc(-c3ccc(C4CCC(c5c(F)cccc5F)=N4)cc3)cc2)n1 (centres unmarked) [drawing 72]
Lucilia cuprina larvae
  Kill rate in % after 48h: 70%
